For assay [1], the system named is HIF-2 (HIF-dependent luciferase reporter, U2OS cells). Put plainly: HIF-2 luciferase reporter assay, U2OS. It counts as cell-based, human. Conditions: transfected HIF-2α. An excerpt:
(§1) In addition, P1 had no effect on VEGF protein levels in hypoxic 786-O cells (Figure 6B). To further probe the effect of P1 on HIF-2, a luciferase reporter assay was developed and used. The assay was derived from the HIF-1 luciferase reporter assay detailed above (Figure 2C and D) and adapted for HIF-2 by replacing the plasmid encoding HIF-1α with the equivalent plasmid encoding HIF-2α. […] P2 and P3 also had no effect on HIF-2 in this assay (Figure S9).
(§2) Endogenous HIF-1 luciferase reporter assays were conducted as previously reported in U2OS-HRE-luc[15] and MCF-7 cells.[46] For plasmid-expressed HIF-α luciferase reporter assays, MCF-7 and U2OS cells were transiently transfected with plasmids expressing HIF-1α, HIF-2α, or a blank control (pcDNA3.1-HIF-1α, pcDNA3.1-HIF-2α, or pcDNA3.1), a renilla-encoding control (phRL-TK), and a HIF-dependent firefly luciferase reporter construct (pGL2-TK-HRE), using Transfast (Promega) according to the manufacturer’s instructions. After 24 h, cells were recovered and plated (4000 cells/well) in 96-well plates (Perkin-Elmer) and incubated for 5 h before either hypoxic or aerobic incubation in presence or absence of cyclic peptide inhibitors. Firefly and renilla activities were determined using Dual-Glo Reagent (Promega) according to the manufacturer’s instructions. The luciferase signal was normalized using the corresponding renilla values.

The test system of assay [2] is U2OS-luc control cell line stably expressing luciferase. The assay is described as follows: Control constitutive luciferase reporter, U2OS-luc. It counts as cell-based, human. An excerpt: Figure S3: Identification of cyclic peptide HIF-1 inhibitors. (A) SICLOPPS expression is induced by arabinose, which processes to give a member of the cyclic peptide library. A dimerization inhibitor would be expected to rescue growth of the HIF-1 RTHS on selective media plates containing IPTG, kanamycin and 3-amino-triazole, and arabinose. (B) The ability of the selected cyclic peptides to […]
HIF-1 RTHS containing the corresponding SICLOPPS plasmid onto selective media. In the absence of arabinose the SICLOPPS split-intein is not produced; the HIF-1 RTHS containing plasmids encoding […]
colonies show survival on selective media plates containing IPTG and arabinose (panel 2). Expressing the 3 selected cyclic peptides from mutant SICLOPPS inteins (H24A, F26A mutations in the C- […]
cyclic form of the peptides and their activity. […]
expressing a constitutive luciferase reporter construct. […]

For assay [3], the system named is CAIX mRNA in hypoxic U2OS cells. Put plainly: CAIX mRNA qPCR, U2OS. It counts as cell-based, human. The note with it: hypoxia, 100 μM. The protocol: (§3) Cells were treated with the stated concentrations of inhibitor (P1, P2, or P3) and incubated in normoxia for 4 h, followed by incubation in a hypoxic environment. All manipulation of cell pellets (e.g., lysis, mRNA, and protein extraction) was conducted in a hypoxic environment.
(§4) Total RNA was extracted from MCF-7 and U2OS cells using RNeasy Mini Kit (74104, QIAGEN) and quantified using a Nanodrop ND-1000 spectrophotometer. Complementary DNA was synthesized in a 20 μL reaction containing 1 μg of total RNA, using qScript cDNA SuperMix (95048-100, Quanta Biosciences) according to the manufacturer’s instructions. Quantitative real-time PCRs were performed using Universal Taqman PCR master mix (Applied Biosystems) >and the Taqman gene expression assay of interest (Applied Biosystems) on an ABI StepOnePlus Real-Time PCR system (Applied Biosystems). Expression assays used in this study were HIF-1α (00936376_m1), VEGF-A (Hs00173626_m1), CAIX (Hs00154208_m1), LOX (Hs00942480_m1), HIF2α (Hs01026149_m1), CITED2 (Hs01897804_s1), and 18S (Hs99999901_m1). All expression values were normalized using expression of 18S.

Assay [4] deals with VEGF protein in hypoxic MCF-7 cells. Put plainly: VEGF protein ELISA, MCF-7. It counts as cell-based, human. Conditions: MCF-7, hypoxia, 100 μM. The protocol: Cells were treated with the stated concentrations of inhibitor (P1, P2, or P3) and incubated in normoxia for 4 h, followed by incubation in a hypoxic environment. All manipulation of cell pellets (e.g., lysis, mRNA, and protein extraction) was conducted in a hypoxic environment. […]
manufacturer’s instructions.
The loaded beads were washed and blocked with the provide buffers. […]
reagent (RPN2232, GE Healthcare).
Fluorescent binding assay
Scientific, catalogue no. […]
followed by washing with 3 × 200 µL ELISA buffer. 95 µL of EMSA buffer was added to […]
The fluorescence of each well at
Isothermal Titration Calorimetry […]
iTC200 system (GE Healthcare).
P2) was dissolved in the same buffer.
Control experiments for P1 or P2
Quantification of VGEF-A protein by ELISA […]
incubation in hypoxia for 16h. VEGF-A protein concentration was quantified by human

Assay [5] concerns endogenous HIF-1α/HIF-1β interaction in MCF-7 cells. The assay is described as follows: In situ proximity ligation assay (PLA), MCF-7. It counts as cell-based. Conditions: 100 μM, MCF-7, hypoxia (1% O2) 4 h.
From the text: The effect of P1 on the endogenous HIF-1α/HIF-1β interaction in intact cells was directly probed using an in situ proximity ligation assay (PLA);[30] primary antibodies (HIF-1α and HIF-1β here) raised in different species are bound by specific secondary antibodies that are tagged with a short DNA strand. The DNA on the interacting PLA probes forms a mini-plasmid that is amplified and bound by a red fluorescent dye. The HIF-1α/HIF-1β interaction is thus visualized as red dots in the DAPI-stained nuclei of MCF-7 and U2OS cells (Figure 4). We observed an increase in PLA signal in MCF-7 cells incubated in hypoxia (1% O2) for 4 h, indicating the expected formation of the HIF-1 dimer in hypoxia (Figure 4, panel 1 versus panel 2). […] The observed effect is not due to a reduction in HIF-1α by P1 (Western blot inset in Figure 4) and thus may be solely attributed to disruption of HIF-1α/HIF-1β dimers.
as §3
Duolink proximity ligation assay was conducted using the in situ PLA Kit (O-Link Bioscience, Uppsala, Sweden) according to the manufacturer’s instructions. […]

Assay [6] has as its system HIF-2 (HIF-dependent luciferase reporter, MCF-7 cells). The assay is described as follows: HIF-2 luciferase reporter assay, MCF-7. It counts as cell-based. The note with it: MCF-7, transfected HIF-2α.
From the text: as §1, §2

Assay [7] has as its system VEGF mRNA in hypoxic MCF-7 cells. Put plainly: VEGF mRNA qPCR, MCF-7. The note with it: MCF-7, hypoxia 16 h, 100 μM. It counts as cell-based. The protocol: as §3, §4

These results are taken from publication PMC3715890, “A Cyclic Peptide Inhibitor of HIF-1 Heterodimerization That Inhibits Hypoxia Signaling in Cancer Cells” (Journal of the American Chemical Society, 2013).

With “Tat-cyclo-CRLMVL (head to tail) [P2, cyclo-CRLMVL tagged with Tat peptide via a disulfide bond; used as negative control]”, the “effect on HIF-2 luciferase reporter signal” value in assay [1] and in assay [6] was “do not affect” each time. In addition, the “effect on constitutive luciferase signal” value in assay [2] was “do not affect”. For the same substance, the “CAIX mRNA” value in assay [3] is on record as “no effect”. Moreover, the VEGF protein level result in assay [4] is given as “has no effect in either cell line”. The “HIF-1 PLA signal” value in assay [5] is given as “did not have any effect on the PLA signal”. For the same substance, the “VEGF mRNA” value in assay [7] was “had no effect”.
